# Measured values reported in patent publication US20050090520A1 (priority 2003, published 2005).
# Like-named read-outs stand apart in the source and are kept apart here.
# Legend:
# S1P4 [1] = target: T1, S1P4 (Homo sapiens, UniProt O95977); details: read-out: Potency (EC50) S1P4, cited from earlier work
# T1 sequence (O95977 1-384): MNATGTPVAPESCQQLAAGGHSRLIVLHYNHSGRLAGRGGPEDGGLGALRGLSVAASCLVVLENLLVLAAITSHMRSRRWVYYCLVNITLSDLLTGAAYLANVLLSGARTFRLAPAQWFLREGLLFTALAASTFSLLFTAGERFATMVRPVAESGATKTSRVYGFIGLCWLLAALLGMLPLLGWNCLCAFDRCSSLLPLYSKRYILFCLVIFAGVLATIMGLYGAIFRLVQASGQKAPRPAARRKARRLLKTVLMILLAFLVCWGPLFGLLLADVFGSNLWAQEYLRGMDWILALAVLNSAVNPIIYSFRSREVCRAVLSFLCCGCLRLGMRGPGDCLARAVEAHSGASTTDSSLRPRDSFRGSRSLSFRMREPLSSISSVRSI
# S1P4 [2] = target: T1, S1P4; details: Mandala et al., 2002; CHO cell membranes; read-out: Binding (IC50) S1P4; cited from earlier work
# [3] = tested on: adult neural stem cells (NSCs); test: Intracellular ATP proliferation assay; format: cell-based, mouse; details: for Increase in intracellular ATP levels: 10 nM, 3 days
# Procedure: (§1) The anterior lateral wall of the lateral ventricle of 5-6 week old mice was enzymatically dissociated at 37° C. for 20 min in 0.8 mg/ml hyaluronidase and 0.5 mg/ml trypsin in DMEM containing 4.5 mg/ml glucose and 80 units/ml DNase. The cells were gently triturated and mixed with three volumes of Neurosphere medium (DMEM/F12, B27 supplement, 125 mM HEPES Ph 7.4) containing 20 ng/ml EGF (unless otherwise stated), 100 units/ml penicillin, and 100 μg/ml streptomycin. After passing through a 70 μm strainer, the cells were pelleted at 160×g for 5 min. The supernatant was subsequently removed and the cells resuspended in Neurosphere medium supplemented as above, plated out in culture dishes and incubated at 37° C. Neurosphere cultures were ready to be split approximately 7 days after plating.
# To split the neurosphere cultures, neurospheres were collected by centrifugation at 160×g for 5 min. The conditioned supernatant (conditioned medium) was removed and saved. The neurospheres were resuspended in 0.5 ml Trypsin/EDTA in HBSS (1×), incubated at 37° C. for 2 min, and triturated gently to aid dissociation. Following a further 3 min incubation at 37° C. and trituration, 3 volumes of ice cold NSPH-media-EGF were added to stop further trypsin activity. The cells were pelleted at 220×g for 4 min, and resuspended in a 1:1 mixture of fresh Neurosphere medium and conditioned medium. EGF was supplemented to 20 ng/ml and the culture plated out and incubated at 37° C.
# (§2) The adherent cells were seeded at a density of 30,000 cells/well on poly-D-lysine in DMEM/F12 supplemented with 1% fetal calf serum (FCS).
# The following experiment was performed in sets of four parallel experiments (i.e., performed in quadruplicate) so that the cells could be used for different assays. […] Cells were lysed with 0.1% Triton-X100 in Tris-EDTA buffer. Intracellular ATP was measured using an ATP-SL kit according to the manufacturer's instructions (BioThema, Sweden). […] For each experiment, wells were visually examined for signs of neurogenesis and counted to confirm the results of the assay. Results were repeatable and statistically significant.
# [4] = tested on: adult neural stem cells (NSCs); test: BrdU incorporation proliferation assay; format: cell-based, mouse; details: 10 nM
# Procedure: as §1
# To split the neurosphere cultures, neurospheres were collected by centrifugation at 160×g for 5 min. The conditioned supernatant (conditioned medium) was removed and saved. The neurospheres were resuspended in 0.5 ml Trypsin/EDTA in HBSS (1×), incubated at 37° C. for 2 min, and triturated gently to aid dissociation. […]
# DNA synthesis is commonly used to measure cell proliferation. […] After incorporation if the pyrimidine analogue into DNA, BrdU was detected by immunoassay. […]
# [5] = tested on: adult neural stem cells (NSCs); test: Lactate dehydrogenase (LDH) cell death assay; format: cell-based, mouse; details: 3 days
# Procedure: as §2
# The death of cells that occurred during the 3 days was measured as leakage of lactate dehydrogenase (LDH) into the medium. […] The proportion of LDH in the medium to total LDH (medium+cells) gives the percentage of cell death. Treated and untreated cells can thus be compared to rule out apoptosis as the cause for the different results observed in the ATP proliferation assay. The amount of LDH was measured according to the instructions of the manufacturer, Promega, USA (see, also, Chen, et al., 2004).
# S1P2 = S1P2 (Homo sapiens, UniProt O95136); details: Mandala et al., 2002; CHO cell membranes; read-out: Binding (IC50) S1P2; cited from earlier work
# S1P3 = S1P3 (Homo sapiens, UniProt Q99500); details: Mandala et al., 2002; CHO cell membranes; read-out: Binding (IC50) S1P3; cited from earlier work
# S1P5 = S1P5 (Homo sapiens, UniProt Q9H228); details: Mandala et al., 2002; CHO cell membranes; read-out: Binding (IC50) S1P5; cited from earlier work
# [6] = rats, cited from earlier work
# [7] = dogs; cited from earlier work
# [8] = monkeys; cited from earlier work
# [9] = renal transplant patients, single oral dose 0.25-3 mg, whole blood, 96 hours; cited from earlier work
# CYP4F3 = target: T2, CYP4F3 (Homo sapiens, UniProt Q08477); details: cited from earlier work
# T2 sequence (Q08477 1-520): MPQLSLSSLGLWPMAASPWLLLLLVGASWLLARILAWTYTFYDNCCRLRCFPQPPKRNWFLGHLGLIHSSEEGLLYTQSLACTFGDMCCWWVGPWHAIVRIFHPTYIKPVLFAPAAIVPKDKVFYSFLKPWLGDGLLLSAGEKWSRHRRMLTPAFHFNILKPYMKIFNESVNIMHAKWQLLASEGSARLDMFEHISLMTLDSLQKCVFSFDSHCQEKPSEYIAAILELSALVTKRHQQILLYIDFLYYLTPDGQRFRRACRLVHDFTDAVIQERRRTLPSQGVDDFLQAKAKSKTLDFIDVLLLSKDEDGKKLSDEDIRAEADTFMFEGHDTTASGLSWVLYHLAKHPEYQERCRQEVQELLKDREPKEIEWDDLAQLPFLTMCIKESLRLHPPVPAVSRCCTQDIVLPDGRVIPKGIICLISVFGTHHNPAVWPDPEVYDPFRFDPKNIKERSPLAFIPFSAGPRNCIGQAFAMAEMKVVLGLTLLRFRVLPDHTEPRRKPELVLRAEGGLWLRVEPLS
# [10] = rat models; IDDB; cited from earlier work
# [11] = dog models, dosages below 200 mg/kg; IDDB; cited from earlier work
# [12] = primates, 3 mg/kg; IDDB; cited from earlier work
# [13] = cited from earlier work
# Sequence of S1P3 (Q99500 whole entry, species assumed): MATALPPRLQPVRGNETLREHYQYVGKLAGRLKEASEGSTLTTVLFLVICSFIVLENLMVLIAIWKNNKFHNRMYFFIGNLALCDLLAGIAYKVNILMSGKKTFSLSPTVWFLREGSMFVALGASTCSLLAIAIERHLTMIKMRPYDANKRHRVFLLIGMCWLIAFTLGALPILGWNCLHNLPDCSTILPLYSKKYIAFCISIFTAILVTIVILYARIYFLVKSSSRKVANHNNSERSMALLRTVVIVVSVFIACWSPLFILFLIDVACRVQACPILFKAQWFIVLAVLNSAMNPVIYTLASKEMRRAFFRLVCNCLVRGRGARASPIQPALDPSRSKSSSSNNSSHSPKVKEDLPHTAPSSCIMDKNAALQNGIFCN
# Sequence of S1P5 (Q9H228 whole entry, species assumed): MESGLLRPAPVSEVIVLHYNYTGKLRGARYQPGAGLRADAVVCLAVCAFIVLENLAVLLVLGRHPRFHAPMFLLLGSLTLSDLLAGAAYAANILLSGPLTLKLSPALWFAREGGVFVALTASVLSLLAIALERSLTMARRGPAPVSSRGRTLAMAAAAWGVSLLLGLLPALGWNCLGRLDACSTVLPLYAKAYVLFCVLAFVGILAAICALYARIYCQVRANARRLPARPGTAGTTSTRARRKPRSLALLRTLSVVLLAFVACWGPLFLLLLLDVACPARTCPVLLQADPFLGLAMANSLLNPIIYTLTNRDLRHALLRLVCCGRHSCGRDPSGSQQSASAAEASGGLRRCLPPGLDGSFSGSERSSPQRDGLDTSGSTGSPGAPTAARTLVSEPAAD
# Sequence of S1P2 (O95136 whole entry, species assumed): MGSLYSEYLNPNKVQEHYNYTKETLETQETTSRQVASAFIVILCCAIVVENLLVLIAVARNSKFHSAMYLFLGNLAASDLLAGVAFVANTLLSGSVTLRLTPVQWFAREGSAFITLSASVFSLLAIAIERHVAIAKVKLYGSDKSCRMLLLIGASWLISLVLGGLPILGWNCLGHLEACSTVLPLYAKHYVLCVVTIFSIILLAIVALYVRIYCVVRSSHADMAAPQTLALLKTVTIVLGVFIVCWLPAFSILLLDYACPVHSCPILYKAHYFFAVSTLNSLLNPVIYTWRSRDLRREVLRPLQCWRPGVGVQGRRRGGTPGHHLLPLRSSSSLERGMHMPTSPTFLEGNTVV
smiles,measurement,setting,value
CCCCCCCCc1ccc(CCC(N)(CO)COP(=O)(O)O)cc1 (racemic) [FTY720P],EC50,"S1P4 [1]; Brinkmann et al., 2002",7.2 nM
same,EC50,S1P4 [1]; Novartis data,43 nM
same,IC50,S1P4 [2],5.9 nM
"CCCCCCCCc1ccc(CCC(N)(CO)CO)cc1 [FTY720, 2-amino-2-[2-(4-octylphenyl)ethyl]-1,3-propanediol]",Concentration of maximum proliferation effect,[3]; FIG. 2,0.04 nM
same,EC50,"[3]; Mus musculus, Neural stem cell, dose-response curve, FIG. 2, read-out: EC50 of in vitro proliferation of NSCs (ATP assay)",0.02 nM
same,Increase in intracellular ATP levels,[3]; adherent cells,42%
same,Increase in intracellular ATP levels,[3]; suspension cells,25%
same,Increase in BrdU incorporation,[4]; adherent cells,271%
same,Increase in BrdU incorporation,[4]; suspension cells,52%
same,Change in LDH levels between control and treated cells,[5],No significant change
same,IC50,S1P2,> 10000 nM
same,IC50,S1P3,> 10000 nM
same,IC50,S1P4 [2],> 5000 nM
same,IC50,S1P5,2620 nM
same,T1/2,[6]; single oral dose 0.1 mg/kg,18.1 h
same,T1/2,[6]; single oral dose 1 mg/kg,21.6 h
same,Oral bioavailability,[6],80%
same,Oral bioavailability,[7],60%
same,Oral bioavailability,[8],40%
same,Absorption,[9],slowly absorbed
same,Cmax and AUC versus dose,[9],proportional to the dose
same,Metabolic route,CYP4F3,metabolized primarily by CYP4F3 to the corresponding carboxylic acid
same,LD50,[10],300 to 600 mg/kg
same,Deaths,[11],no deaths were observed
same,Toxicity,[12],no observed toxicity
same,Adverse events,"[13]; PI renal transplant patients, 0.25-3.5 mg single dose",no serious adverse events
same,Only observed side effect,[13]; orally administered for immunosuppression,mild and transient bradycardia
